Measurements: patent publication US7425635B2, “Prodrugs and conjugates of thiol- and selenol-containing compounds and methods of use thereof” (University of Utah Research Foundation, priority 1997, dated 2008)

Key:
[1] = system: Ugt1a6; experiment: Northern blot of liver Ugt1a6 mRNA after ip dosing; type: in vivo, mice; conditions: mean ± SEM
Description: (§1) Linking efficacy to biochemical parameters and a mechanism was limited in the initial study by only two parameters, [Se] and GPx activity. The in-vivo effects of selenazolidine compounds were then evaluated using, in addition to GPx, glutathione S-transferases (GSTs), quinone oxidoreductases (NQORs), UDP-glucuronosyltransferases (UGTs), and microsomal epoxide hydrolase (mEH). To investigate transcriptional changes of these classes of enzymes, it was necessary to develop a battery of cDNA probes for use in Northern blot analysis of RNA extracted from treated animals (Table 2).
(§2) Whether the selenaproline compounds had the ability to up-regulate the transcription of Phase II and/or other “protective” enzymes was first evaluated following a single dose of each (Table 3). […] The experiment was repeated but with a 7-day treatment regimen (Table 4), the time period for which the compounds were given in the diet before NNK administration in the tumor experiment reported in Table 1. […] With multiple doses, SCA induced Ugt1a9, an mRNA that was not changed with a single dose. […] The elevation in the Gst-mu transcript was unique to multiple OSCA treatment. The elevation of the GST-alpha mRNA was also seen with SCA treatment. Microsomal epoxide hydrolase mRNA was robustly elevated by multiple doses of all three selenaproline compounds, an effect not anticipated from the single dose experiment where not even minor changes were apparent.

[2] = system: Gst-mu; experiment: Northern blot of liver Gst-mu mRNA after ip dosing; type: in vivo, mice; conditions: mean ± SEM
Description: as §1, §2

[3] = system: GPx; experiment: Northern blot of liver GPx mRNA after ip dosing; type: in vivo, mice; conditions: mean ± SEM
Description: as §1, §2

[4] = system: Gst-alpha; experiment: Northern blot of liver Gst-alpha mRNA after ip dosing; type: in vivo, mice; conditions: mean ± SEM
Description: as §1, §2

[5] = system: Ugt1a9; experiment: Northern blot of liver Ugt1a9 mRNA after ip dosing; type: in vivo, mice; conditions: for Ugt1a9 mRNA: mean ± SEM
Description: as §1, §2

[6] = sALT (hepatotoxicity) after 7 daily ip doses; type: in vivo; set-up: unit not given here; conditions: 7 daily doses ip, 1.25 mg Se/kg, with corn oil; untreated mice 37.5 ± 2.9
From the text: (§3) Many of the mRNA changes seen with a single dose were not sustained with multiple dosing. Changes in Ugt transcripts after multiple dosing were noticeably absent. Unique to BSCA among the four new compounds investigated was its ability to induce Gst-alpha, Gst-mu and GPx mRNAs. For the Gst-alpha transcripts, which appeared elevated by corn oil, the BSCA increase was much greater than the vehicle alone (8-fold versus 2-fold) and was statistically significant (p<0.05). BSCA shared with PhOHSCA the ability to elevate mEH mRNA.

[7] = system: Ugt1a1; experiment: Northern blot of liver Ugt1a1 mRNA after ip dosing; type: in vivo, mice; conditions: mean ± SEM
Description: as §1, §2

[8] = system: mEH; experiment: Northern blot of liver mEH mRNA after ip dosing; type: in vivo, mice; conditions: mean ± SEM
Description: as §1, §2

[9] = system: 'protective' enzyme mRNAs; experiment: Northern blot of 'protective' enzyme mRNAs (all probes) after ip dosing; type: in vivo, mice; conditions: 7 daily doses ip, with corn oil
Description: as §1, §3

[10] = system: NNK lung tumor; experiment: NNK lung tumor four-month feeding study; type: in vivo; conditions: mice, diet 15 ppm Se from 1 week prior to NNK (10 umol, ip), sacrificed after 16 weeks
Description: (§4) Three novel selenazolidines, 2-methyl-, 2-oxo- and 2-unsubstituted (i.e., selenaproline) selenazolidine-4[R]-carboxylic acid (MSCA, OSCA, and SCA respectively) that had been synthesized as prodrugs of selenocysteine were evaluated for their potential to act as cancer chemopreventive agents. [Se] and GPx activity were evaluated.
(§5) Where indicated, mice (16 g) were given diets fortified with SCA, MSCA or OSCA (15 ppm Se) for 1 week prior to NNK (10 umol, ip). Two other groups received the unmodified AIN-76A diet, with and without NNK administration. All groups were maintained on their pretreatment diet until the animals were sacrificed after 16 weeks. Liver GPx activity is expressed as μmol NADPH oxidized [in regenerating GSH]/min/mg 10,000 g×20 min supernatant protein; RBC activity as μmol/min/mg RBC lysate hemoglobin.

[11] = system: GST; experiment: Hepatic cytosolic GST (CDNB) activity after 7 daily ip doses; type: in vivo, mice; conditions: 7 daily doses ip, hepatic cytosol; naive 5248 ± 503
[12] = Body weight gain and liver weight in four-month feeding study; type: in vivo; conditions: mice, diet 15 ppm Se, NNK
Description: as §5

[13] = system: GPx; experiment: Hepatic and RBC (tButylOOH) GPx activity in four-month feeding study; type: in vivo; conditions: mice, diet 15 ppm Se, NNK
Description: as §4, §5

[14] = system: GPx; experiment: Hepatic cytosolic GPx (H202) activity after 7 daily ip doses; type: in vivo, mice; conditions: 7 daily doses ip, hepatic cytosol; naive 894 ± 36
[15] = system: E. coli AB1157; experiment: Toxicity in E. coli AB1157 (colony forming ability); type: cell-based; conditions: E. coli AB1157, cell viability by colony forming ability
Description: A well characterized bacterial system was used as an initial screen for radioprotective activity of the novel compounds. A single colony of the bacteria, growing on a plate of LB medium (10 g tryptone, 5 g yeast extract, plus 5 g NaCl in 1 L water), was inoculated into 2 mL LB and incubated overnight. 20 mL LB medium were then inoculated with 600 μL of the overnight culture, and incubated with shaking at 37° C., 250 rpm. The cells were collected and washed with phosphate buffered saline. At this point the bacteria could be irradiated, treated with drug, etc., as outlined below. After dilution of the treated cells to 100 cells per 100 μL, they are plated out and incubated overnight. Cell viability is then measured by colony forming ability.
The toxicity of the compounds of interest in this system was explored.

[16] = 7 daily doses ip, 1.25 mg Se/kg, with corn oil, liver RNA 24 hours after the last dose
[17] = 1 dose ip, 1.25 mg Se/kg in corn oil, liver RNA 24 hours after dosing
[18] = 1 dose ip, 1.25 mg Se/kg, liver RNA 24 hours after dosing
[19] = 7 daily doses ip, 1.25 mg Se/kg, liver RNA 24 hours after the last dose

For 2-(2-hydroxyphenyl)-SCA [PhOHSCA], the “Ugt1a6 mRNA” value [1, 16] was 0.99 ± 0.14 fold change from naive, the “Gst-mu mRNA” value [2, 17] was 1.18 ± 0.32 fold change from naive and the “Gst-mu mRNA” value [2, 16] was 1.54 ± 0.23 fold change from naive. The “GPx mRNA” value [3, 16] was 1.51 ± 0.50 fold change from naive, the “Gst-alpha mRNA” value [4, 17] was 1.49 ± 0.22 fold change from naive and the “Gst-alpha mRNA” value [4, 16] was 1.91 ± 0.71 fold change from naive. The “Ugt1a9 mRNA” value [5, 17] was 1.65 ± 0.32 fold change from naive, the “Ugt1a9 transcript expression compared to the corn oil effect” value ([5]; 1 dose ip, in corn oil, comparison with corn oil alone) was “significantly reduced” and the “Ugt1a9 mRNA” value [5, 16] was 1.06 ± .14 fold change from naive. For the same compound, the sALT [6] was 42.4 ± 3.0, the “Ugt1a1 mRNA” value [7, 16] was 0.77 ± .04 fold change from naive and the “mEH mRNA” value [8, 17] was 1.38 ± 0.48 fold change from naive.

With `O=C(O)C1C[Se]C(C2CCCCC2)N1` (mixture of isomers) [ChSCA, 2-cyclohexyl-SCA] the “Ugt1a6 mRNA” value [1, 16] was 1.22 ± 0.17 fold change from naive, the “Gst-mu mRNA” value [2, 17] was 1.20 ± 0.15 fold change from naive and the “Gst-mu mRNA” value [2, 16] was 1.32 ± 0.21 fold change from naive. For the same compound, the “GPx mRNA” value [3, 17] was 1.20 ± 0.15 fold change from naive, the “GPx mRNA” value [3, 16] was 2.26 ± 0.66 fold change from naive and the “Gst-alpha mRNA” value [4, 17] was 1.73 ± 0.20 fold change from naive. For the same compound, the “Gst-alpha mRNA” value [4, 16] was 1.99 ± 0.77 fold change from naive, the “Ugt1a9 mRNA” value [5, 17] was 3.04 ± 0.55 fold change from naive and the “Ugt1a9 mRNA” value ([5]; 1 dose ip, 1.25 mg Se/kg in corn oil, liver RNA 24 hours after dosing, listed as CnSCA) was “statistically elevated”. For the same compound, the “Ugt1a9 mRNA” value [5, 16] was 1.16 ± 0.13 fold change from naive, the sALT [6] was 40.0 ± 1.7 and the “Induction of 'protective' enzyme mRNAs (any)” value [9] was “failed to induce any mRNAs”. The “Ugt1a1 mRNA” value [7, 16] was 1.20 ± 0.17 fold change from naive, the “mEH mRNA” value [8, 17] was 1.34 ± 0.41 fold change from naive and the “mEH mRNA” value [8, 16] was 1.31 ± 0.19 fold change from naive.

In the case of `CC1N[C@H](C(=O)O)C[Se]1` (mixture of isomers) [MSCA, 2(R,S)-Methylselenazolidine-4(R)-carboxylic acid], the “NNK Tumors” value [10] is reported as 8.3 ± 0.9, the “Ugt1a6 mRNA” value [1, 18] is reported as 1.21 ± 0.28 fold change from naive and the “Ugt1a6 mRNA” value [1, 19] is reported as 1.02 ± 0.15 fold change from naive. The “Gst-mu mRNA” value [2, 18] was 1.07 ± 0.57 fold change from naive, the “Gst-mu mRNA” value [2, 19] was 1.65 ± 0.18 fold change from naive and the “GST (CDNB) activity” value [11] was 6948 ± 502 nmol/mg cytosol (100,000 g supernatant) protein/min. The “Body wt gain (%)” value [12] was 49.3%, the “Liver weight” value [12] was 1.17 ± 0.02 g and the “GPx (1.5 kb) mRNA” value [3, 18] was 1.65 ± 0.27 fold change from naive. The “GPx mRNA” value [3, 19] was 1.43 ± 0.35 fold change from naive, the “RBC (tButylOOH) GPx” value ([13]; RBC) was 220 ± 32 μmol/min/mg RBC lysate hemoglobin and the “Hepatic (tButylOOH) GPx” value ([13]; liver) was 564 ± 46 μmol NADPH oxidized/min/mg 10,. For the same compound, the “Gst-alpha mRNA” value [4, 18] was 1.00 ± 0.19 fold change from naive, the “Gst-alpha mRNA” value [4, 19] was 1.18 ± 0.33 fold change from naive and the “GPx (H202) activity” value [14] was 944 ± 32 nmol/mg cytosol (100,000 g supernatant) protein/min. For the same compound, the “Ugt1a9 mRNA” value [5, 18] was 1.47 ± 0.18 fold change from naive, the “Ugt1a9 mRNA” value [5, 19] was 1.22 ± 0.29 fold change from naive and the “Ugt1a1 mRNA” value [7, 18] was 1.07 ± 0.11 fold change from naive. For the same compound, the “Ugt1a1 mRNA” value [7, 19] was 1.15 ± 0.09 fold change from naive, the “mEH mRNA” value [8, 18] was 1.06 ± 0.12 fold change from naive and the “mEH mRNA” value [8, 19] was 3.35 ± 1.21 fold change from naive.

With `O=C(O)C1C[Se]C(c2ccccc2)N1` (mixture of isomers) [PhSCA, 2-phenyl-SCAS] the “Ugt1a6 mRNA” value [1, 17] was 1.78 ± 0.54 fold change from naive, the “Ugt1a6 mRNA” value [1, 16] was 0.96 ± 0.04 fold change from naive and the “Gst-mu mRNA” value [2, 17] was 0.74 ± 0.16 fold change from naive. For the same compound, the “Gst-mu mRNA” value [2, 16] was 1.01 ± 0.27 fold change from naive, the “GPx mRNA” value [3, 17] was 0.74 ± 0.16 fold change from naive and the “GPx mRNA” value [3, 16] was 1.46 ± 0.35 fold change from naive. For the same compound, the “Gst-alpha mRNA” value [4, 17] was 0.63 ± 0.14 fold change from naive, the “Gst-alpha mRNA” value [4, 16] was 2.29 ± 0.68 fold change from naive and the “Ugt1a9 mRNA” value [5, 17] was 2.14 ± 0.54 fold change from naive. The “Ugt1a9 mRNA” value [5, 16] was 0.83 ± 0.08 fold change from naive, the sALT [6] was 37.3 ± 1.4 and the “Induction of 'protective' enzyme mRNAs (any)” value [9] was “failed to induce any mRNAs”. The “Ugt1a1 mRNA” value [7, 17] was 1.41 ± 0.30 fold change from naive, the “Ugt1a1 mRNA” value [7, 16] was 1.32 ± 0.12 fold change from naive and the “mEH mRNA” value [8, 17] was 0.98 ± 0.27 fold change from naive. For the same compound, the “mEH mRNA” value [8, 16] was 0.80 ± 0.15 fold change from naive.

In the case of `NCCCN1CCSC1=O` [2-oxo prodrug, 3-(3-Aminopropyl)-2-thiazolidinone], the “Toxicity in the bacterial system” value [15] is reported as “neither WR-1065 nor its 2-oxo prodrug produced any toxicity”.
